Laboratory results: ChEMBL document CHEMBL5154930, “Design, Synthesis, and Biological Evaluations of DOT1L Peptide Mimetics Targeting the Protein-Protein Interactions between DOT1L and MLL-AF9/MLL-ENL” (J Med Chem, 2022)
Activity calls are given as the source filed them. The rule behind the calls is not given here. Non-standard residues stand in square brackets, D forms with d. Residues, ends and D or L forms follow the SMILES beside them. *: point of attachment. X1 = C[C@H](N*)c1nc2cccc(-c3ccccc3)c2[nH]1; Ala(cPent) = N[C@@H](CC1CCCC1)C(=O)O; Pentanoyl(4-Me) = CC(C)CCC(=O)*; Dap(Me) = CNC[C@H](N)C(=O)O

Experiments:
K562 = assay: Anticancer activity against human K562 cells assessed as inhibition of cell growth treated for 8 days measured by CCK-8 kit method; format: functional, cell-based; details: K562, 192 h
MOLM-13 [1] = assay: Inhibition of methylation of H3K79 in human MOLM-13 cells assessed as inhibition of methylation at HOXA11 gene cluster by chromatin immunoprecipitation assay; format: functional, cell-based
MOLM-13 [2] = assay: cells; details: Homo sapiens, MOLM-13, 168 h
Description: Anticancer activity against human MOLM-13 cells harbouring MLL-AF9 assessed as inhibition of cell growth treated for 7 days measured by CCK-8 kit method

MOLM-13 [3] = assay: Down regulation of HOXA9 gene in human MOLM-13 cells by RNA-sequencing analysis; format: functional, cell-based
MOLM-13 [4] = assay: Inhibition of methylation of H3K79 in human MOLM-13 cells assessed as inhibition of methylation at MEIS1 gene cluster by chromatin immunoprecipitation assay; format: functional, cell-based
MOLM-13 [5] = assay: Inhibition of methylation of H3K79 in human MOLM-13 cells assessed as inhibition of methylation at HOXA5 gene cluster by chromatin immunoprecipitation assay; format: functional, cell-based
MOLM-13 [6] = assay: Down regulation of MEIS1 gene in human MOLM-13 cells by RNA-sequencing analysis; format: functional, cell-based
MOLM-13 [7] = assay: Induction of apoptosis in human MOLM-13 cells at 0.25 to 1 uM by Annexin V-FITC/PI staining based flow cytometry analysis; format: functional, cell-based; details: dose 0.25-1 µM, time 5-9 day, TDE = time-dependent effect
MOLM-13 [8] = assay: Down regulation of HOXA3 gene in human MOLM-13 cells by RNA-sequencing analysis; format: functional, cell-based
MOLM-13 [9] = assay: cells; details: Homo sapiens, MOLM-13, 216 h
Description: Anticancer activity against human MOLM-13 cells harbouring MLL-AF9 assessed as inhibition of cell growth treated for 9 days measured by CCK-8 kit method

MOLM-13 [10] = assay: Inhibition of methylation of H3K79 in human MOLM-13 cells assessed as inhibition of methylation at HOXA10 gene cluster by chromatin immunoprecipitation assay; format: functional, cell-based
MOLM-13 [11] = assay: Down regulation of RUNX1 gene in human MOLM-13 cells by RNA-sequencing analysis; format: functional, cell-based
MOLM-13 [12] = assay: Down regulation of GBE1 gene in human MOLM-13 cells by RNA-sequencing analysis; format: functional, cell-based
[13] = Apparent permeability across apical to basolateral side in human Caco-2 cells; format: ADME, cell-based
Protein AF-9 = target: T1, Protein AF-9 (Homo sapiens, UniProt P42568); assay: Binding affinity to MBP-tagged human recombinant AF9 (487 to 568 residues) incubated for 40 mins by measuring fluorescence polarization by microplate reader method
T1 sequence (P42568 whole entry): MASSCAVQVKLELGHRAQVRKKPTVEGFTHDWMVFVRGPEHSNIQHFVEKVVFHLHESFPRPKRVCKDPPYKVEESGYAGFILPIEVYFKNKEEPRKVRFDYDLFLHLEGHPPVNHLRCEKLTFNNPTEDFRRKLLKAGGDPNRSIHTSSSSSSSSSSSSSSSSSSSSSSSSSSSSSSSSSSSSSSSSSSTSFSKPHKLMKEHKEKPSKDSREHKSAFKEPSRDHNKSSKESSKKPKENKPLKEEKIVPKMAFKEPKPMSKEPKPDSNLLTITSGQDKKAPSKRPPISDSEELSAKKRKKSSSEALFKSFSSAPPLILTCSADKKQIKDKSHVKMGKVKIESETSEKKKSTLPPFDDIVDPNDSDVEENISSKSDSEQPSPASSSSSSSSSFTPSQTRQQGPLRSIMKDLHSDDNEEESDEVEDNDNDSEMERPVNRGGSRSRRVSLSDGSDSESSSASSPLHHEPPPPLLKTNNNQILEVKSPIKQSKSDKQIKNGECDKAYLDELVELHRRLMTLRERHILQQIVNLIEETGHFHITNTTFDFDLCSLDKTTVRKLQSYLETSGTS

MOLM-13 [14] = assay: Down regulation of CNOT6L gene in human MOLM-13 cells by RNA-sequencing analysis; format: functional, cell-based
MOLM-13 [15] = assay: Down regulation of JMJD1C gene in human MOLM-13 cells by RNA-sequencing analysis; format: functional, cell-based
MOLM-13 [16] = assay: Down regulation of AC011043.1 gene in human MOLM-13 cells by RNA-sequencing analysis; format: functional, cell-based
MOLM-13 [17] = assay: Down regulation of ARID1B gene in human MOLM-13 cells by RNA-sequencing analysis; format: functional, cell-based
MOLM-13 [18] = assay: Inhibition of methylation of H3K79 in human MOLM-13 cells assessed as inhibition of methylation at HOXA9 gene cluster by chromatin immunoprecipitation assay; format: functional, cell-based
MOLM-13 [19] = assay: Inhibition of methylation of H3K79 in human MOLM-13 cells assessed as inhibition of methylation at HOXA3 gene cluster by chromatin immunoprecipitation assay; format: functional, cell-based
MOLM-13 [20] = assay: Inhibition of methylation of H3K79 in human MOLM-13 cells assessed as inhibition of methylation at HOXA7 gene cluster by chromatin immunoprecipitation assay; format: functional, cell-based

Q: With CNC[C@H](NC(=O)[C@@H](NC(=O)[C@@H]1CCCN1C(=O)CCC(C)C)C(C)C)C(=O)N[C@@H](CC1CCCC1)C(=O)N[C@@H](C)c1nc2cccc(-c3ccccc3)c2[nH]1 ({Pentanoyl(4-Me)}-PV[Dap(Me)][Ala(cPent)]-X1) as the molecule, how does the IC50 (K562) read?
A: 59000 nM

Q: What about the inhibition (MOLM-13 [1]) of the same molecule?
A: Active

Q: What about the IC50 (MOLM-13 [2]) of the same molecule?
A: 167 nM

Q: And the Activity (MOLM-13 [3])?
A: Active

Q: What about the inhibition (MOLM-13 [4]) of the same molecule?
A: Active

Q: And the inhibition (MOLM-13 [5])?
A: Active

Q: And the Activity (MOLM-13 [6])?
A: Active

Q: What about the Activity (MOLM-13 [7]) of the same molecule?
A: Tde

Q: And the Activity (MOLM-13 [8])?
A: Active

Q: What about the IC50 (MOLM-13 [9]) of the same molecule?
A: 44 nM

Q: And the inhibition (MOLM-13 [10])?
A: Active

Q: What about the Activity (MOLM-13 [11]) of the same molecule?
A: Active

Q: And the Activity (MOLM-13 [12])?
A: Active

Q: And the Papp A→B [13]?
A: 1.97 ×10⁻⁶ cm/s

Q: What about the Ki (Protein AF-9) of the same molecule?
A: 9 nM

Q: And the Activity (MOLM-13 [14])?
A: Active

Q: And the Activity (MOLM-13 [15])?
A: Active

Q: What about the Activity (MOLM-13 [16]) of the same molecule?
A: Active

Q: And the Activity (MOLM-13 [17])?
A: Active

Q: What about the inhibition (MOLM-13 [18]) of the same molecule?
A: Active

Q: What about the inhibition (MOLM-13 [19]) of the same molecule?
A: Active

Q: What about the inhibition (MOLM-13 [20]) of the same molecule?
A: Active
